In patent US9540323B2 (BRISTOL-MYERS SQUIBB COMPANY, priority 2012, dated 2017):

Key:
[1] = target: cloned human P2Y1 receptors (Homo sapiens (Human), UniProt P47900); assay: Binding Assay B - Scintillation Proximity Assay (SPA) for P2Y1 binding, [33P] 2MeS-ADP; conditions: SPA, 0.3 nM [33P] 2MeS-ADP, Cheng-Prusoff; read-out: P2Y1 Ki (nM) using binding assay B
Description: Binding Assay B—Scintillation Proximity Assay (SPA) for P2Y1 Binding
A SPA membrane binding assay was used to identify inhibitors of [^33P] […] Reactions were allowed to proceed to completion at room temperature for 1 hour followed by centrifugation of the plate for 5 min. About 40 μL of the aqueous solution was aspirated. Plates were sealed and the [^33P]

[2] = test system: human platelet rich plasma (PRP); assay: ADP induced platelet aggregation assay; conditions: Homo sapiens, Platelet, 5 min, read-out: PA IC50 (μM) @ 10 μM ADP, human PRP, 10 μM ADP, AUC at 5 minute

Chain of cloned human P2Y1 receptors (P47900 whole entry): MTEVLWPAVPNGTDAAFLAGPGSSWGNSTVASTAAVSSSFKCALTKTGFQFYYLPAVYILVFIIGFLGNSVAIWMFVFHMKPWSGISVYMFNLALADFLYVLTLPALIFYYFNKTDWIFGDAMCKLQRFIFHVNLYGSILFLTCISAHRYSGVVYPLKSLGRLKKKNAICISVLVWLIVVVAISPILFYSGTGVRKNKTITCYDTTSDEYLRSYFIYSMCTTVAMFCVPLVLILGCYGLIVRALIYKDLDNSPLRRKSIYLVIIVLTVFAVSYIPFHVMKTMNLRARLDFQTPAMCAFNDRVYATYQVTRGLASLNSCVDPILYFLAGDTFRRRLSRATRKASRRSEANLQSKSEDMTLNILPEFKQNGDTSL

Compound `CC1(C)CN(c2ccccc2NC(=O)Nc2nc3ccc(Cl)nc3s2)c2c(O)cc(F)c(-c3cc(C(F)(F)F)no3)c21` [Example 263, 1-(5-Chlorothiazolo[5,4-b]pyridin-2-yl)-3-(2-(5-fluoro-7-hydroxy-3,3-dimethyl-4-(3-(trifluoromethyl)isoxazol-5-yl)indolin-1-yl)phenyl)urea] has a Ki [1] of 20.5 nM and an IC50 [2] of 0.84 µM.

With `CN(C)Cc1cccc(-c2c(F)cc(O)c3c2C(C)(C)CN3c2ccccc2NC(=O)Nc2ccc(OC(F)(F)F)cc2)c1` [Example 249, 1-(2-(4-(3-((Dimethylamino)methyl)phenyl)-5-fluoro-7-hydroxy-3,3-dimethylindolin-1-yl)phenyl)-3-(4-(trifluoromethoxy)phenyl)urea] the Ki [1] was 12.2 nM and the IC50 [2] was 0.7 µM.

With `CC1(C)CN(c2ccccc2NC(=O)Nc2ccc(OC(F)(F)F)cc2)c2c(O)ccc(C(F)(F)F)c21` [Example 12, 1-(2-(7-Hydroxy-3,3-dimethyl-4-(trifluoromethyl)indolin-1-yl)phenyl)-3-(4-(trifluoromethoxy)phenyl)urea] the Ki [1] was 5 nM and the IC50 [2] was 0.2 µM.

`CCOC(=O)C1(C)CN(c2ccccc2NC(=O)Nc2nc3ccc(Cl)nc3s2)c2c(O)ccc(Cl)c21` (stereo not drawn) [Example 77, Ethyl 4-chloro-1-(2-(3-(5-chlorothiazolo[5,4-b]pyridin-2-yl)ureido)phenyl)-7-hydroxy-3-methylindoline-3-carboxylate] gave a Ki [1] of 12.9 nM and an IC50 [2] of 0.61 µM.

For `CC1(C)CN(c2ccccc2NC(=O)Nc2nc3ccc(Cl)cc3s2)c2c(O)c(F)cc(Br)c21` [Example 66, 1-(2-(4-Bromo-6-fluoro-7-hydroxy-3,3-dimethylindolin-1-yl)phenyl)-3-(6-chlorobenzo[d]thiazol-2-yl)urea], the Ki [1] was 21.3 nM and the IC50 [2] was 0.75 µM.

`CC1(C)CN(c2cccc(F)c2NC(=O)Nc2ccc(F)cc2F)c2c(O)ccc(C(F)(F)F)c21` [Example 61, 1-(2,4-Difluorophenyl)-3-(2-fluoro-6-(7-hydroxy-3,3-dimethyl-4-(trifluoromethyl)indolin-1-yl)phenyl)urea] was tested, and the Ki [1] was 5.2 nM and the IC50 [2] was 0.54 µM.

For `CC1(C)CN(c2ccccc2NC(=O)Nc2ccc(OC(F)(F)F)cc2)c2c(O)ccc(-c3ccc(C(F)(F)F)cc3)c21` [Example 196, 1-(2-(7-Hydroxy-3,3-dimethyl 4-(4-(trifluoromethyl)phenyl)indolin-1-yl)phenyl)-3-(4-(trifluoromethoxy)phenyl)urea], the Ki [1] was 8 nM and the IC50 [2] was 0.23 µM.

For `C=C(C)c1ccc(-c2c(F)cc(O)c3c2C(C)(C)CN3c2ccccc2NC(=O)Nc2ccc(OC(F)(F)F)cc2)cc1` [Example 250, 1-(2-(5-Fluoro-7-hydroxy-3,3-dimethyl-4-(4-(prop-1-en-2-yl)phenyl)indolin-1-yl)phenyl)-3-(4-(trifluoromethoxy)phenyl)urea], the Ki [1] was 29.5 nM and the IC50 [2] was 0.22 µM.

`CC1(C)CN(c2ccccc2NC(=O)Nc2nc3ccc(F)cc3s2)c2c(O)ccc(Br)c21` [Example 1, 1-(2-(4-Bromo-7-hydroxy-3,3-dimethylindolin-1-yl)phenyl)-3-(6-fluorobenzo[d]thiazol-2-yl)urea] was tested, and the Ki [1] was 10.8 nM and the IC50 [2] was 0.47 µM.

`Cc1ccc2nc(-c3ccc(O)c4c3C(C)(C)CN4c3ccccc3NC(=O)Nc3ccc(OC(F)(F)F)cc3)oc2c1` [Example 95, 1-(2-(7-Hydroxy-3,3-dimethyl-4-(6-methylbenzo[d]oxazol-2-yl)indolin-1-yl)phenyl)-3-(4-(trifluoromethoxy)phenyl)-urea] showed a Ki [1] of 33.3 nM and an IC50 [2] of 0.46 µM.

`CCC1(CC)CN(c2ccccc2NC(=O)Nc2ccc(C3CCCN3CC(C)C)cc2)c2c(O)cccc21` (stereo not drawn) [Example 8] was tested, and the Ki [1] was 18.6 nM and the IC50 [2] was 0.31 µM.

Work on `CC(C)(C)c1nc(-c2c(F)cc(O)c3c2C(C)(C)CN3c2ccccc2NC(=O)Nc2nc3ccc(Cl)cc3s2)co1` [Example 270, 1-(2-(4-(2-(tert-Butyl)oxazol-4-yl)-5-fluoro-7-hydroxy-3,3-dimethylindolin-1-yl)phenyl)-3-(6-chlorobenzo[d]thiazol-2-yl)urea] yielded a Ki [1] of 17.3 nM and an IC50 [2] of 0.43 µM.
